How the values were obtained:
Caco-2 cell = test: Stability in the Caco-2 cell system; type: in vitro ADME, human; settings: 4-hour incubation in Caco-2 Transwell; relative to initial conc. = 100.00 (500 μM)
Procedure, shortened: (§1)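 Compounds at 500 μM initial concentration were incubated 4 h at 37 °C in HBSS alone or on the apical side of Caco-2 monolayers (cultured 18–26 days, TEER over 350 Ω×cm^2). Apical and basolateral levels were quantified by reverse-phase HPLC at 210 nm against the initial concentration.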

[1] = Stability in Hanks' balanced salt solution (HBSS); type: physicochemical; settings: 37° C., relative to initial conc. in HBSS = 100.00
Procedure, shortened: as §1

PC12 cells = test: Neural protection in H2O2/PC12 cell system (MTT); type: cell-based; settings: 500 μM H2O2-induced PC12 cytotoxicity
Procedure: The neural protection of NAP and the NAP derivatives prepared in EXAMPLE 1 were measured by H2O2/PC12 cell system. PC12 cells (4×10^4 cells) were seeded into a 96-well plate and incubated for 24 hours. NAP and the NAP derivatives prepared in EXAMPLE 1 at different concentration were added into the plate and incubated at 37° C. for 4 hours. Hydrogen peroxide with a concentration of 500 μM was then added to induce cytotoxicity. After 24 hours, supernatants were discarded and MTT [3-(4,5-dimethylthiazol-2-yl)-2,5-diphenyltetrazolium bromide] solution (0.5 mg/ml) was added for 4-hour reaction at 37° C. One hundred and fifty μl of DMSO was added to solve formazan product. Absorbance was measured by Microplate Reader at 570 nm, and cell viability was calculated. […] FIGS. 3 to 8 show the cell protection of the NAP derivatives from H2O2-induced PC12 cytotoxicity.

SMILES: CC[C@H](C)[C@H](NC(=O)[C@H](CO)NC(=O)[C@@H](NC(=O)[C@@H]1CCCN1C(=O)[C@H](C)NC(=O)[C@@H](N)CC(N)=O)C(C)C)C(=O)N1CCC[C@H]1C(=O)N[C@@H](CCC(N)=O)C(=O)O [BMEC-NAP, H-NAPVSIPQ-OH, reference compound]
- Conc. after 4-hour in Caco-2 cells (Caco-2 cell): 42.49
- Conc. after 4-hour in HBSS [1]: 99.21
- concentration level at which cell viability was increased (PC12 cells): picomolar (i.e. 10^−12) level
- concentration level of cell protection effect (PC12 cells; 4 h pre-incubation): femtomolar (i.e. 10^−15) level

From patent publication US7544666B2, “NAP derivatives” (Industrial Technology Research Institute, priority 2005, dated 2009)
